In patent US6737383B1, “Herbicidal oxadiazolidines” (priority 1999, dated 2004):

Tests used:
[1] = tested on: bedstraw; assay: Test B pre/postemergence bedstraw; format: in vivo, Galium aparine; details: for Bedstraw plant response rating (0 to 10 scale): 0 is no effect
Outline: (§1)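 Test chemicals in a non-phytotoxic solvent mixture with surfactant were sprayed preemergence onto planted seeds and postemergence onto plants 2 to 18 cm tall (1- to 4-leaf stage). After twelve to sixteen days in a greenhouse, injury was visually rated against untreated controls from 0 (no effect) to 10 (complete control).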

[2] = tested on: bamyardgrass; assay: Test B flood test barnyardgrass; format: in vivo, Echinochloa crus-galli; details: for Plant response rating, Barnyardgrass (0 to 10 scale, 0 is no effect, 10 is complete control) / Barnyardgrass plant response rating (0 to 10 scale, 0 is no effect, 10 is complete control): visual evaluation after twelve to sixteen days; for Barnyardgrass plant response rating (0 to 10 scale, 0 is no effect, 10 is complete control): under heading Pre-emergence
Outline: (§2)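 Read-out is a visual response score from 0 (no effect) to 10 (complete control), assigned by comparison with untreated controls. Treatment was applied at the 2-leaf stage, and plants stayed in the greenhouse for twelve to sixteen days before scoring.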

[3] = tested on: rice; assay: Test B flood test rice; format: in vivo, Oryza sativa; details: for Plant response rating, Rice (0 to 10 scale, 0 is no effect, 10 is complete control) / Rice plant response rating (0 to 10 scale, 0 is no effect, 10 is complete control): visual evaluation after twelve to sixteen days; for Rice plant response rating (0 to 10 scale, 0 is no effect, 10 is complete control): under heading Pre-emergence
Outline: as §2

[4] = tested on: pigweed; assay: Test B pre/postemergence pigweed; format: in vivo, Amaranthus retroflexus
Outline: as §1

[5] = Postemergence, Rate 62 g/ha, scale 0 to 10, 0 is no effect, 10 is complete control
[6] = Postemergence, Rate 250 g/ha, scale 0 to 10, 0 no effect, 10 complete control
[7] = Preemergence, Rate 62 g/ha, scale 0 to 10 (0 no effect, 10 complete control)
[8] = Preemergence, Rate 125 g/ha, scale 0 to 10 (0 no effect, 10 complete control)
[9] = Preemergence, Rate 250 g/ha, scale of 0 to 10 where 0 is no effect and 10 is complete control
[10] = Preemergence, Rate 500 g/ha, scale 0 (no effect) to 10 (complete control)
[11] = Rate 125 g/ha, Postemergence, scale 0 to 10, 0 no effect, 10 complete control
[12] = Rate 500 g/ha, Postemergence, scale 0 to 10, 0 no effect, 10 complete control
[13] = Rate 62 g/ha, headed Pre-emergence (flood test species), scale 0 to 10 (0 no effect, 10 complete control)
[14] = Rate 125 g/ha, Pre-emergence, flood test species, scale 0 to 10 where 0 is no effect and 10 is complete control
[15] = Rate 250 g/ha, headed Pre-emergence (flood test species), scale 0 to 10 (0 no effect, 10 complete control)
[16] = Rate 500 g/ha, headed Pre-emergence (flood test species), scale 0 to 10 (0 no effect, 10 complete control)
[17] = Postemergence, Rate 125 g/ha, scale 0 to 10, 0 is no effect, 10 is complete control
[18] = Postemergence, Rate 250 g/ha, scale 0 to 10, 0 is no effect, 10 is complete control
[19] = Postemergence, Rate 500 g/ha, scale of 0 to 10 where 0 is no effect and 10 is complete control
[20] = Preemergence, Rate 125 g/ha, scale of 0 to 10 where 0 is no effect and 10 is complete control
[21] = Preemergence, Rate 500 g/ha, scale 0 to 10, 0 is no effect, 10 is complete control
[22] = Rate 62 g/ha, Postemergence, scale of 0 to 10 where 0 is no effect and 10 is complete control
[23] = Rate 62 g/ha, flood test species, Pre-emergence
[24] = Rate 125 g/ha, flood test species
[25] = Rate 250 g/ha, Pre-emergence, flood-test species, scale 0 to 10, 0 is no effect, 10 is complete control
[26] = Rate 500 g/ha, Pre-emergence, flood test species, scale 0 to 10 (0 no effect, 10 complete control)
[27] = Preemergence, Rate 250 g/ha, scale 0 to 10, 0 is no effect, 10 is complete control
[28] = Preemergence, Rate 500 g/ha, scale of 0 to 10 where 0 is no effect and 10 is complete control
[29] = Preemergence, Rate 62 g/ha, scale of 0 to 10 where 0 is no effect and 10 is complete control
[30] = Preemergence, Rate 125 g/ha, 10 is complete control
[31] = Rate 125 g/ha, Postemergence, scale 0 to 10
[32] = Preemergence, Rate 125 g/ha, 0 is no effect, 10 is complete control
[33] = Rate 500 g/ha, Postemergence, scale 0 to 10
[34] = Postemergence, Rate 125 g/ha, scale of 0 to 10 where 0 is no effect and 10 is complete control
[35] = Preemergence, Rate 500 g/ha, scale 0 to 10 (0 no effect, 10 complete control)
[36] = Rate 250 g/ha, Postemergence, scale 0 to 10, 0 is no effect, 10 is complete control
[37] = Postemergence (flood test species), Rate 125 g/ha, scale of 0 to 10 where 0 is no effect and 10 is complete control
[38] = Rate 62 g/ha, Postemergence section, flood test species, scale of 0 to 10 where 0 is no effect and 10 is complete control
[39] = Rate 250 g/ha, Postemergence (flood test), scale 0 to 10, 0 is no effect, 10 is complete control
[40] = Preemergence, Rate 62 g/ha, scale 0 to 10, 0 is no effect, 10 is complete control
[41] = Rate 125 g/ha, Postemergence section (flood test species), scale 0 to 10, 0 no effect, 10 complete control
[42] = Rate 500 g/ha, Postemergence section of Table B, 0 to 10 scale (0 no effect, 10 complete control)
[43] = flood test, listed under Postemergence, Rate 250 g/ha, scale 0 to 10, 0 no effect, 10 complete control

Cc1ccccc1-n1c(=O)on(C(=O)N(Cc2ccccc2)C(C)C)c1=O [Compound 72]
Bedstraw plant response rating [1, 5]: 0
Bedstraw plant response rating [1, 6]: 0
Bedstraw plant response rating [1, 7]: 0
Plant response rating, Bedstraw [1, 8]: 0
Plant response rating, Bedstraw [1, 9]: 0
Bedstraw plant response rating [1, 10]: 0
Bedstraw plant response rating [1, 11]: 0
Bedstraw plant response rating [1, 12]: 0
Barnyardgrass plant response rating [2, 13]: 0
Barnyardgrass plant response rating [2, 14]: 0
Barnyardgrass plant response rating [2, 15]: 0
Plant response rating, Barnyardgrass [2, 16]: 0
Rice plant response rating [3, 13]: 0
Rice plant response rating [3, 14]: 0
Rice plant response rating [3, 15]: 0
Plant response rating, Rice [3, 16]: 0
Redroot pigweed plant response rating [4, 5]: 0
Redroot pigweed plant response rating [4, 6]: 0
Redroot pigweed plant response rating [4, 7]: 0
Plant response rating, Redroot pigweed [4, 8]: 0
Plant response rating, Redroot pigweed [4, 9]: 0
Redroot pigweed plant response rating [4, 10]: 0
Redroot pigweed plant response rating [4, 11]: 0
Redroot pigweed plant response rating [4, 12]: 0

CC1CC1Cn1c(=O)on(C(=O)N(c2ccc(F)cc2)C(C)C)c1=O (stereo not drawn) [Compound 402]
Plant response rating, Bedstraw [1, 17]: 3
Plant response rating, Bedstraw [1, 18]: 7
Bedstraw plant response rating [1, 19]: 8
Plant response rating, Bedstraw [1, 7]: 2
Plant response rating, Bedstraw [1, 20]: 3
Bedstraw plant response rating [1, 21]: 10
Bedstraw plant response rating [1, 22]: 3
Plant response rating, Barnyardgrass (0 to 10 scale, 0 is no effect, 10 is complete control) [2, 23]: 5
Barnyardgrass plant response rating (0 to 10 scale, 0 is no effect, 10 is complete control) [2, 24]: 5
Barnyardgrass plant response rating [2, 25]: 8
Barnyardgrass plant response rating [2, 26]: 9
Plant response rating, Rice (0 to 10 scale, 0 is no effect, 10 is complete control) [3, 23]: 1
Rice plant response rating (0 to 10 scale, 0 is no effect, 10 is complete control) [3, 24]: 1
Rice plant response rating [3, 25]: 2
Rice plant response rating [3, 26]: 2
Plant response rating, Redroot pigweed [4, 18]: 5
Redroot pigweed plant response rating [4, 19]: 7
Plant response rating, Redroot pigweed [4, 7]: 0
Plant response rating, Redroot pigweed [4, 20]: 2
Redroot pigweed plant response rating [4, 27]: 4
Redroot pigweed plant response rating [4, 21]: 10
Redroot pigweed plant response rating [4, 22]: 2

CC(C)N(C(=O)n1oc(=O)n(N2CCOCC2)c1=O)c1ccc(F)cc1F [Compound 384]
Plant response rating, Bedstraw [1, 17]: 0
Plant response rating, Bedstraw [1, 18]: 0
Bedstraw plant response rating [1, 22]: 0
Plant response rating, Bedstraw [1, 12]: 0
Plant response rating, Barnyardgrass (0 to 10 scale, 0 is no effect, 10 is complete control) [2, 23]: 0
Barnyardgrass plant response rating (0 to 10 scale, 0 is no effect, 10 is complete control) [2, 24]: 0
Barnyardgrass plant response rating [2, 25]: 0
Barnyardgrass plant response rating [2, 26]: 0
Plant response rating, Rice (0 to 10 scale, 0 is no effect, 10 is complete control) [3, 23]: 0
Rice plant response rating (0 to 10 scale, 0 is no effect, 10 is complete control) [3, 24]: 0
Rice plant response rating [3, 25]: 0
Rice plant response rating [3, 26]: 0
Plant response rating, Redroot pigweed [4, 17]: 0
Plant response rating, Redroot pigweed [4, 18]: 0
Plant response rating, Redroot pigweed [4, 7]: 0
Redroot pigweed plant response rating (0 to 10 scale) ([4]; Preemergence, Rate 125 g/ha): 0
Redroot pigweed plant response rating [4, 9]: 0
Redroot pigweed plant response rating [4, 28]: 0
Redroot pigweed plant response rating [4, 22]: 0
Plant response rating, Redroot pigweed [4, 12]: 0

Cc1nc(C)c(-n2c(=O)on(C(=O)N(c3ccccc3)C(C)C)c2=O)s1 [Compound 197]
Bedstraw plant response rating [1, 29]: 0
Bedstraw plant response rating (0 to 10 scale) [1, 30]: 0
Bedstraw plant response rating [1, 27]: 0
Plant response rating, Bedstraw [1, 28]: 0
Bedstraw plant response rating [1, 22]: 0
Bedstraw plant response rating [1, 31]: 0
Plant response rating (0 to 10; 0 is no effect, 10 is complete control), Bedstraw ([1]; Rate 250 g/ha, Postemergence): 0
Barnyardgrass plant response rating [2, 13]: 0
Barnyardgrass plant response rating [2, 14]: 0
Barnyardgrass plant response rating [2, 25]: 0
Plant response rating, Barnyardgrass [2, 16]: 0
Rice plant response rating [3, 13]: 0
Rice plant response rating [3, 14]: 0
Rice plant response rating [3, 25]: 0
Plant response rating, Rice [3, 16]: 0
Redroot pigweed plant response rating [4, 29]: 0
Redroot pigweed plant response rating (0 to 10 scale) [4, 32]: 0
Redroot pigweed plant response rating [4, 27]: 0
Plant response rating, Redroot pigweed [4, 28]: 0
Redroot pigweed plant response rating [4, 22]: 0
Redroot pigweed plant response rating [4, 31]: 0
Plant response rating (0 to 10; 0 is no effect, 10 is complete control), Redroot pigweed ([4]; Rate 250 g/ha, Postemergence): 0
Redroot pigweed plant response rating [4, 33]: 0

COc1ccccc1Cn1c(=O)on(C(=O)N(c2ccc(F)cc2)C(C)C)c1=O [Compound 143]
Bedstraw plant response rating [1, 34]: 6
Bedstraw plant response rating [1, 7]: 0
Bedstraw plant response rating (0 to 10 scale) [1, 30]: 0
Bedstraw plant response rating [1, 27]: 0
Bedstraw plant response rating [1, 35]: 0
Bedstraw plant response rating [1, 22]: 5
Plant response rating, Bedstraw [1, 36]: 6
Bedstraw plant response rating [1, 12]: 8
Barnyardgrass plant response rating [2, 37]: 8
Barnyardgrass plant response rating [2, 38]: 0
Plant response rating, Barnyardgrass [2, 39]: 8
Barnyardgrass plant response rating ([2]; Rate 500 g/ha, listed under Postemergence (flood test species), scale 0 to 10, 0 no effect, 10 complete control): 10
Rice plant response rating [3, 37]: 0
Rice plant response rating [3, 38]: 0
Plant response rating, Rice [3, 39]: 2
Rice plant response rating ([3]; Rate 500 g/ha, listed under Postemergence (flood test species), scale 0 to 10): 4
Redroot pigweed plant response rating [4, 34]: 5
Redroot pigweed plant response rating (0 to 10 scale) [4, 32]: 0
Redroot pigweed plant response rating [4, 27]: 4
Redroot pigweed plant response rating [4, 35]: 10
Redroot pigweed plant response rating [4, 22]: 3
Plant response rating, Redroot pigweed [4, 36]: 5
Redroot pigweed plant response rating [4, 33]: 6

Cc1ccccc1-n1c(=O)on(C(=O)N(c2cc(OC(C)C)c(Cl)cc2Cl)C(C)C)c1=O [Compound 42]
Bedstraw plant response rating [1, 5]: 0
Bedstraw plant response rating [1, 6]: 0
Plant response rating, Bedstraw [1, 40]: 0
Plant response rating, Bedstraw [1, 8]: 0
Plant response rating, Bedstraw [1, 9]: 0
Bedstraw plant response rating [1, 10]: 0
Bedstraw plant response rating [1, 11]: 0
Barnyardgrass plant response rating [2, 5]: 0
Barnyardgrass plant response rating [2, 41]: 0
Barnyardgrass plant response rating [2, 42]: 0
Barnyardgrass plant response rating [2, 43]: 0
Rice plant response rating [3, 5]: 0
Rice plant response rating [3, 41]: 0
Rice plant response rating [3, 42]: 0
Rice plant response rating [3, 43]: 0
Redroot pigweed plant response rating [4, 5]: 0
Redroot pigweed plant response rating [4, 6]: 0
Plant response rating, Redroot pigweed [4, 40]: 0
Plant response rating, Redroot pigweed [4, 8]: 0
Plant response rating, Redroot pigweed [4, 9]: 0
Redroot pigweed plant response rating [4, 10]: 0
Redroot pigweed plant response rating [4, 11]: 0
Redroot pigweed plant response rating ([4]; Rate 500 g/ha, Postemergence, 0 to 10 scale (0 no effect, 10 complete control)): 2
